Holding throughout (assay): ≥ marks a high value that may be exact or a test limit, other limits are often not marked, values filed in µg/mL are converted to µM
For assay [1], the system named is Candida albicans CGMCC 2.2086.
Assay [2] relates to Candida parapsilosis CGMCC 2.3989.
Assay [3] deals with Candida tropicalis CGMCC 2.1975.
In assay [4] the test system is Escherichia coli 078.
In assay [5] the test system is Escherichia coli K88.
Assay [6] relates to Escherichia coli K99.
Assay [7] has as its system Escherichia coli UB1005.
The subject of assay [8] is Pseudomonas aeruginosa ATCC 27853.
Assay [9] has as its system Salmonella enterica subsp. enterica serovar Pullorum ATCC 7913.
For assay [10], the system named is Salmonella enterica subsp. enterica serovar Typhimurium ATCC 14028.
Assay [11] concerns Salmonella enterica subsp. enterica serovar Typhimurium C77-31.
The test system of assay [12] is Staphylococcus aureus ATCC 25923.
Assay [13] has as its system Staphylococcus aureus ATCC 29213.
The test system of assay [14] is Staphylococcus aureus ATCC 43300.
Assay [15] concerns Staphylococcus epidermidis ATCC 12228.
Assay [16] relates to Acinetobacter baumannii.
The test system of assay [17] is Bacillus cereus CGMCC 1.932.
In assay [18] the test system is Bacillus subtilis CMCC 63501.
For assay [19], the system named is Enterococcus faecalis ATCC 29212.
For assay [20], the system named is Listeria monocytogenes CGMCC 1.1075.
Assay [21] deals with Pseudomonas aeruginosa PAO1.
Assay [22] relates to Salmonella typhimurium ATCC 7731.
Assay [23] deals with Candida albicans.
The test system of assay [24] is Salmonella enterica subsp. enterica serovar Choleraesuis CVCC 503.
Assay [25] deals with Pseudomonas aeruginosa H1001.

Converted amounts (≈) assume the structure as drawn. “And” between values parts separate entries of the source, which are not always exact repeats. Equal values may be shown once.

In general, MIC refers to the lowest concentration found to suppress growth. Read a low MIC as a more susceptible organism. Take `CC[C@H](C)[C@H](NC(=O)[C@H](CCCN=C(N)N)NC(=O)[C@H](C)NC(=O)[C@H](C)N)C(=O)N[C@H](C(=O)N[C@@H](CC(C)C)C(=O)N[C@@H](CCCN=C(N)N)C(=O)N[C@@H](CC(N)=O)C(=O)N[C@@H](CCCN=C(N)N)C(=O)N[C@@H](Cc1ccccc1)C(=O)N[C@@H](CCCN=C(N)N)C(N)=O)[C@@H](C)CC` [AARIILRNRFR]: the MIC in assay [1] was ≥ 128 µM; in [2] it was ≥ 128 µM; in assay [3], ≥ 128 µM; in assay [4] it was 16 µM (≈ 22.2 µg/mL); in [5] it was ≥ 32 µM; in assay [6] it was 16 µM (≈ 22.2 µg/mL). The minimum inhibitory concentration (MIC) in assay [7] was 16 µM (≈ 22.2 µg/mL); in [8] it was > 128 µM; in assay [9], 16 µM (≈ 22.2 µg/mL); in [10], 32 µM (≈ 44.3 µg/mL); in [11], ≥ 32 µM; in [12], > 128 µM. The minimum inhibitory concentration (MIC) in [13], in assay [14] and in [15] was > 128 µM throughout.

In the case of `CC(C)C[C@H](NC(=O)[C@H](CCCN=C(N)N)NC(=O)[C@H](Cc1c[nH]c2ccccc12)NC(=O)[C@H](CCCN=C(N)N)NC(=O)[C@H](Cc1c[nH]c2ccccc12)NC(=O)[C@H](Cc1c[nH]c2ccccc12)NC(=O)[C@H](Cc1c[nH]c2ccccc12)NC(=O)[C@H](CCCN=C(N)N)NC(=O)[C@H](Cc1c[nH]c2ccccc12)NC(=O)[C@H](CCCN=C(N)N)NC(=O)CN)C(N)=O` [GRWRWWWRWRL], the minimum inhibitory concentration (MIC) in [16] is 1 µM (≈ 1.74 µg/mL); in assay [17], 8 µM (≈ 13.9 µg/mL); in [18], 4 µM (≈ 6.97 µg/mL); in assay [19], > 32 µM; in assay [4], 2 µM (≈ 3.49 µg/mL); in assay [5], 2 µM (≈ 3.49 µg/mL). Also, the minimum inhibitory concentration (MIC) in assay [6] turned out to be 4 µM (≈ 6.97 µg/mL); in assay [7] it was 2 µM (≈ 3.49 µg/mL); in [20] it was 2 µM (≈ 3.49 µg/mL); in [8], 4 µM (≈ 6.97 µg/mL); in [21] it was 4 µM (≈ 6.97 µg/mL); in assay [9], 2 µM (≈ 3.49 µg/mL). In addition, the minimum inhibitory concentration (MIC) in assay [10] turned out to be 4 µM (≈ 6.97 µg/mL); in [22], 4 µM (≈ 6.97 µg/mL); in assay [12], 2 µM (≈ 3.49 µg/mL); in assay [14] it was 2 µM (≈ 3.49 µg/mL); in assay [15] it was 2 µM (≈ 3.49 µg/mL).

As to `C[C@H](NC(=O)[C@H](Cc1c[nH]c2ccccc12)NC(=O)[C@H](Cc1c[nH]c2ccccc12)NC(=O)[C@H](CCCN=C(N)N)NC(=O)[C@H](CCCN=C(N)N)NC(=O)[C@H](Cc1c[nH]c2ccccc12)NC(=O)[C@H](CCCN=C(N)N)NC(=O)[C@H](CCCN=C(N)N)NC(=O)[C@H](Cc1c[nH]c2ccccc12)NC(=O)[C@H](Cc1c[nH]c2ccccc12)NC(=O)CN)C(N)=O` [GWWRRWRRWWA], the MIC in [16] stood at 1 µM (≈ 1.7 µg/mL); in [17], 2 µM (≈ 3.4 µg/mL); in assay [18], 0.5 µM (≈ 0.85 µg/mL); in assay [19], 4 µM (≈ 6.8 µg/mL); in assay [4], 8 µM (≈ 13.6 µg/mL); in assay [5], 2 µM (≈ 3.4 µg/mL). Further, the MIC in assay [6] was determined as 4 µM (≈ 6.8 µg/mL); in [7], 2 µM (≈ 3.4 µg/mL); in assay [20], 2 µM (≈ 3.4 µg/mL); in assay [8], 4 µM (≈ 6.8 µg/mL); in assay [21], 2 µM (≈ 3.4 µg/mL); in assay [9] it was 2 µM (≈ 3.4 µg/mL). For the same compound, the MIC in assay [10] was 4 µM (≈ 6.8 µg/mL); in assay [22], 4 µM (≈ 6.8 µg/mL); in [12] it was 2 µM (≈ 3.4 µg/mL); in assay [14], 2 µM (≈ 3.4 µg/mL); in assay [15], 2 µM (≈ 3.4 µg/mL).

Consider `CC(C)C[C@H](NC(=O)[C@H](CCCCN)NC(=O)[C@H](CCCCN)NC(=O)[C@H](CC(C)C)NC(=O)[C@H](CCCN=C(N)N)NC(=O)[C@H](CS)NC(=O)[C@H](C)NC(=O)[C@H](CC(C)C)NC(=O)[C@H](CCCCN)NC(=O)[C@H](CCCCN)NC(=O)[C@H](CC(C)C)NC(=O)[C@H](CCCN=C(N)N)NC(=O)[C@H](CS)NC(=O)[C@H](C)NC(=O)[C@H](CC(C)C)NC(=O)[C@H](CCCCN)NC(=O)[C@H](CCCCN)NC(=O)[C@@H](N)CC(C)C)C(=O)N[C@@H](C)C(=O)N[C@@H](CS)C(=O)N[C@@H](CCCN=C(N)N)C(N)=O` [LKKLACRLKKLACRLKKLACR], for which the MIC was 8 µM and 16 µM in assay [1]; 4 µM (≈ 9.83 µg/mL) in [23]; 8 µM (≈ 19.7 µg/mL) in assay [2]; 1 µM (≈ 2.46 µg/mL) in [3]; 16 µM (≈ 39.3 µg/mL) in [19]; 2 µM (≈ 4.91 µg/mL) in [7]. The minimum inhibitory concentration (MIC) in [8] was found to be 4 µM (≈ 9.83 µg/mL); in assay [21], 4 µM (≈ 9.83 µg/mL); in assay [24], 2 µM (≈ 4.91 µg/mL); in assay [10], 4 µM (≈ 9.83 µg/mL); in [11], 8 µM (≈ 19.7 µg/mL); in assay [12] it was 16 µM (≈ 39.3 µg/mL). The values for the minimum inhibitory concentration (MIC) in assay [13], in [14] and in [15] were 8 µM (≈ 19.7 µg/mL), 4 µM (≈ 9.83 µg/mL) and 16 µM (≈ 39.3 µg/mL), respectively.

In the case of `CC(C)C[C@H](NC(=O)[C@H](CCCN=C(N)N)NC(=O)[C@H](C)NC(=O)[C@H](CS)NC(=O)[C@H](CC(C)C)NC(=O)[C@H](CCCCN)NC(=O)[C@H](CCCCN)NC(=O)[C@H](CC(C)C)NC(=O)[C@H](CCCN=C(N)N)NC(=O)[C@H](C)NC(=O)[C@H](CS)NC(=O)[C@H](CC(C)C)NC(=O)[C@H](CCCCN)NC(=O)[C@H](CCCCN)NC(=O)[C@@H](N)CC(C)C)C(=O)N[C@@H](CCCCN)C(=O)N[C@@H](CCCCN)C(=O)N[C@@H](CC(C)C)C(=O)N[C@@H](CS)C(=O)N[C@@H](C)C(=O)N[C@@H](CCCN=C(N)N)C(N)=O` [LKKLCARLKKLCARLKKLCAR], the MIC in [23] is 5.66 µM (≈ 13.9 µg/mL); in assay [2] it was 8 µM (≈ 19.7 µg/mL); in [3], 2 µM (≈ 4.91 µg/mL); in [19] it was > 64 µM; in assay [7] it was 2 µM (≈ 4.91 µg/mL); in assay [8], 16 µM (≈ 39.3 µg/mL). Also, the MIC in assay [21] was 16 µM (≈ 39.3 µg/mL); in [24], 8 µM (≈ 19.7 µg/mL); in [10], 32 µM (≈ 78.6 µg/mL); in [11], ≥ 64 µM; in assay [12], > 64 µM; in [13], > 64 µM. Moreover, the minimum inhibitory concentration (MIC) in assay [14] is 32 µM (≈ 78.6 µg/mL); in assay [15] it was > 64 µM.

In assay [25], `CC[C@H](C)[C@H](NC(=O)[C@H](CCCN=C(N)N)NC(=O)[C@H](CCCN=C(N)N)NC(=O)[C@@H]1CCCN1C(=O)[C@@H]1CCCN1C(=O)[C@H](CCCN=C(N)N)NC(=O)[C@@H]1CCCN1C(=O)[C@H](CCCN=C(N)N)NC(=O)[C@@H]1CCCN1C(=O)[C@H](CC(C)C)NC(=O)[C@H](Cc1ccc(O)cc1)NC(=O)[C@@H]1CCCN1C(=O)[C@@H]1CCCN1C(=O)[C@H](CCCCN)NC(=O)[C@H](CC(=O)O)NC(=O)[C@@H](N)C(C)C)C(=O)N[C@@H](Cc1ccc(O)cc1)C(=O)N[C@@H](CCCCN)C(=O)N[C@@H](CCCN=C(N)N)C(=O)NCC(=O)O` [VDKPPYLPRPRPPRRIYKRG] returned an MIC of 0.106 µM (≈ 0.26 µg/mL).

Regarding `CC(C)C[C@H](NC(=O)[C@H](Cc1ccc(O)cc1)NC(=O)[C@@H]1CCCN1C(=O)[C@@H]1CCCN1C(=O)[C@H](CCCCN)NC(=O)[C@H](CC(=O)O)NC(=O)[C@@H](N)C(C)C)C(=O)N1CCC[C@H]1C(=O)N[C@@H](CCCN=C(N)N)C(=O)N1CCC[C@H]1C(=O)N[C@@H](CCCN=C(N)N)C(=O)N1CCC[C@H]1C(=O)N1CCC[C@H]1C(=O)N[C@@H](CCCN=C(N)N)C(=O)N[C@@H](CCCN=C(N)N)C(=O)N[C@@H](CCCCN)C(=O)N[C@@H](Cc1ccc(O)cc1)C(=O)N[C@@H](CC(N)=O)C(=O)N[C@@H](CCCN=C(N)N)C(=O)NCC(=O)O` [VDKPPYLPRPRPPRRKYNRG], in [25], the MIC turned out to be 0.0487 µM (≈ 0.12 µg/mL).

Source of the values: DBAASP.
